Source: PubChem BioAssay (NCI)
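In this assay, cells in 96-well plates receive the compound at five concentrations for 48 hours. Endpoints are linearly interpolated between the surrounding concentrations. GI50 = concentration required for 50% inhibition of growth. TGI: total growth inhibition.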

What was measured:
Test in all cases: inhibition of tumour cell growth, NCI panel, 48 h
[1] = test system: 786-0 renal
[2] = test system: A498 renal
[3] = test system: A549 NSCLC
[4] = test system: ACHN renal
[5] = test system: BT-549 breast
[6] = test system: CAKI-1 renal
[7] = test system: CCRF-CEM leukemia
[8] = test system: COLO 205 colon
[9] = test system: DU-145 prostate
[10] = test system: EKVX NSCLC
[11] = test system: HCC-2998 colon
[12] = test system: HCT-116 colon
[13] = test system: HCT-15 colon
[14] = test system: HL-60(TB) leukemia
[15] = test system: HOP-62 NSCLC
[16] = test system: HOP-92 NSCLC
[17] = test system: HS 578T breast
[18] = test system: HT29 colon
[19] = test system: IGROV1 ovarian
[20] = test system: K-562 leukemia
[21] = test system: KM12 colon
[22] = test system: LOX IMVI melanoma
[23] = test system: M14 melanoma
[24] = test system: MALME-3M melanoma
[25] = test system: MCF7 breast
[26] = test system: MDA-MB-231 breast
[27] = test system: MDA-MB-435
[28] = test system: MOLT-4 leukemia
[29] = test system: NCI-H226 lung
[30] = test system: NCI-H23 lung
[31] = test system: NCI-H460 lung
[32] = test system: NCI-H522 lung
[33] = test system: NCI/ADR-RES ovarian
[34] = test system: OVCAR-3 ovarian
[35] = test system: OVCAR-4 ovarian
[36] = test system: OVCAR-5 ovarian
[37] = test system: OVCAR-8 ovarian
[38] = test system: PC-3 prostate
[39] = test system: RPMI-8226 leukemia
[40] = test system: RXF 393 renal
[41] = test system: SF-268 CNS
[42] = test system: SF-295 CNS
[43] = test system: SF-539 CNS
[44] = test system: SK-MEL-2 melanoma
[45] = test system: SK-MEL-28 melanoma
[46] = test system: SK-MEL-5 melanoma
[47] = test system: SK-OV-3 ovarian
[48] = test system: SN12C renal
[49] = test system: SNB-19 CNS
[50] = test system: SNB-75 CNS
[51] = test system: SR leukemia
[52] = test system: SW-620 colon
[53] = test system: T-47D breast
[54] = test system: TK-10 renal
[55] = test system: U251 CNS
[56] = test system: UACC-257 melanoma
[57] = test system: UACC-62 melanoma
[58] = test system: UO-31 renal

Compound: CN(C)CCOc1ccccc1NC1=C(Cl)C(=O)C(Nc2ccccc2OCCN(C)C)=C(Cl)C1=O
- GI50 [1]: 1.64 µM
- TGI [1]: 5.92 µM
- GI50 [2]: > 38.2 µM
- TGI [2]: > 53.8 µM
- GI50 [3]: > 47.3 µM
- TGI [3]: > 100 µM
- GI50 [4]: 0.494 µM
- TGI [4]: 1.6 µM
- GI50 [5]: 20.7 µM
- TGI [5]: > 49.7 µM
- GI50 [6]: 1.14 µM
- TGI [6]: 2.36 µM
- GI50 [7]: 0.966 µM
- GI50 [8]: 1.78 µM
- TGI [8]: 3.77 µM
- GI50 [9]: 6.64 µM
- GI50 [10]: 5.33 µM
- TGI [10]: 19.1 µM
- GI50 [11]: 5.74 µM
- TGI [11]: > 21.6 µM
- GI50 [12]: 0.518 µM
- TGI [12]: 1.01 µM
- GI50 [13]: 0.845 µM
- TGI [13]: 2.61 µM
- GI50 [14]: 0.658 µM
- TGI [14]: 2.06 µM
- GI50 [15]: 39.1 µM
- TGI [15]: > 100 µM
- GI50 [16]: 1.45 µM
- TGI [16]: 3.07 µM
- GI50 [17]: 29.5 µM
- TGI [17]: > 83.1 µM
- GI50 [18]: 0.83 µM
- TGI [18]: 3.5 µM
- GI50 [19]: 0.636 µM
- TGI [19]: 1.48 µM
- GI50 [20]: 2.26 µM
- TGI [20]: 5.41 µM
- GI50 [21]: 20.9 µM
- TGI [21]: > 100 µM
- GI50 [22]: 0.592 µM
- TGI [22]: 1.25 µM
- GI50 [23]: > 27 µM
- TGI [23]: > 84.6 µM
- GI50 [24]: 3.31 µM
- TGI [24]: 12.8 µM
- GI50 [25]: 0.51 µM
- TGI [25]: 1.18 µM
- GI50 [26]: 2.21 µM
- TGI [26]: 6.61 µM
- GI50 [27]: 9.42 µM
- TGI [27]: > 40.6 µM
- GI50 [28]: 0.694 µM
- TGI [28]: 1.91 µM
- GI50 [29]: 23.6 µM
- TGI [29]: > 57.9 µM
- GI50 [30]: 6.47 µM
- TGI [30]: 22.6 µM
- GI50 [31]: 27.8 µM
- TGI [31]: > 96.4 µM
- GI50 [32]: 0.502 µM
- TGI [32]: 1.14 µM
- GI50 [33]: 24.6 µM
- TGI [33]: > 100 µM
- GI50 [34]: 0.444 µM
- TGI [34]: 0.879 µM
- GI50 [35]: 0.473 µM
- TGI [35]: 0.896 µM
- GI50 [36]: 10.2 µM
- TGI [36]: > 38.6 µM
- GI50 [37]: 4.16 µM
- TGI [37]: 20.7 µM
- GI50 [38]: 9.84 µM
- TGI [38]: > 31.8 µM
- GI50 [39]: > 100 µM
- TGI [39]: > 100 µM
- GI50 [40]: 3.93 µM
- TGI [40]: 10.4 µM
- GI50 [41]: 9.76 µM
- TGI [41]: 36.3 µM
- GI50 [42]: > 38.4 µM
- TGI [42]: > 65.9 µM
- GI50 [43]: 16.4 µM
- TGI [43]: > 48.3 µM
- GI50 [44]: 19.2 µM
- TGI [44]: > 57 µM
- GI50 [45]: > 95 µM
- TGI [45]: > 100 µM
- TGI [46]: > 23.8 µM
- GI50 [47]: > 47.7 µM
- TGI [47]: > 83.1 µM
- GI50 [48]: 0.573 µM
- TGI [48]: 1.21 µM
- GI50 [49]: 24.9 µM
- TGI [49]: > 49.8 µM
- GI50 [50]: > 39.4 µM
- TGI [50]: > 82.1 µM
- GI50 [51]: 5.12 µM
- TGI [51]: > 100 µM
- GI50 [52]: 0.566 µM
- TGI [52]: 1.24 µM
- GI50 [53]: 0.811 µM
- TGI [53]: 3.16 µM
- GI50 [54]: 5.73 µM
- TGI [54]: 12.4 µM
- GI50 [55]: 10.2 µM
- TGI [55]: 39.5 µM
- TGI [56]: > 41.1 µM
- GI50 [57]: > 34.1 µM
- TGI [57]: > 49.3 µM
- GI50 [58]: 0.735 µM
- TGI [58]: 2.22 µM
